# US11945813B2, “5-substituted 4-amino-1H-benzo[c][1,2,6]thiadiazine 2,2-dioxides and formulations and uses thereof” (Firmenich Incorporated, priority 2018, dated 2024)
# What was measured:
# T1R2/T1R3 taste receptor = target: T1, T1R2/T1R3 taste receptor (Homo sapiens, UniProt Q8TE23); experiment: Receptor-based assay: sweetener EC50 alone and with test compound (enhancement ratio); type: cell-based; settings: for Sucralose Enhancement EC50 Ratio: sweetener sucralose; for Sucrose Enhancement EC50 Ratio: sweetener sucrose; for Fructose Enhancement EC50 Ratio: sweetener fructose
# T1 sequence (Q8TE23 20-839): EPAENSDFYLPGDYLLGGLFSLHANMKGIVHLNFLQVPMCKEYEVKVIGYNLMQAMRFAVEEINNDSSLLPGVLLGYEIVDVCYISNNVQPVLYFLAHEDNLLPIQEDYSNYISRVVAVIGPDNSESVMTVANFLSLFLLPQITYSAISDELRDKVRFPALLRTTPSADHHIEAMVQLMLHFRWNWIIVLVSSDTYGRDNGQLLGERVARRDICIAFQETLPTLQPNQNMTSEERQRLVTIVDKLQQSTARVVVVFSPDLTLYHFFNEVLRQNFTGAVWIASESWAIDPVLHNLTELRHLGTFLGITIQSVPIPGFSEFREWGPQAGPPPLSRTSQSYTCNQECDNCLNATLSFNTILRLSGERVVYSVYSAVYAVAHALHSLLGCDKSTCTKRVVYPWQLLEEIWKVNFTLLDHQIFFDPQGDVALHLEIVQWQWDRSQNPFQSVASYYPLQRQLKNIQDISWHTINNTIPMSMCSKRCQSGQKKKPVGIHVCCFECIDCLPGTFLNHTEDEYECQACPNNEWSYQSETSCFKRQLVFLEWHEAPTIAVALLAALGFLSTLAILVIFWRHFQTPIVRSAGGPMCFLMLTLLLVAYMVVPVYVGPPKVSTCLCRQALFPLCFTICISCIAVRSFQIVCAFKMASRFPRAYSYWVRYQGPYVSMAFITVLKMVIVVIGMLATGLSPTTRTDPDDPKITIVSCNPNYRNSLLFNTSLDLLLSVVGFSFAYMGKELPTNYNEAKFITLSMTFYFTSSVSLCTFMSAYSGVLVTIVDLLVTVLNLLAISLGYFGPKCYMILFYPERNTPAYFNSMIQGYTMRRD
# T1 sequence (Q7RTX0 21-852 partner): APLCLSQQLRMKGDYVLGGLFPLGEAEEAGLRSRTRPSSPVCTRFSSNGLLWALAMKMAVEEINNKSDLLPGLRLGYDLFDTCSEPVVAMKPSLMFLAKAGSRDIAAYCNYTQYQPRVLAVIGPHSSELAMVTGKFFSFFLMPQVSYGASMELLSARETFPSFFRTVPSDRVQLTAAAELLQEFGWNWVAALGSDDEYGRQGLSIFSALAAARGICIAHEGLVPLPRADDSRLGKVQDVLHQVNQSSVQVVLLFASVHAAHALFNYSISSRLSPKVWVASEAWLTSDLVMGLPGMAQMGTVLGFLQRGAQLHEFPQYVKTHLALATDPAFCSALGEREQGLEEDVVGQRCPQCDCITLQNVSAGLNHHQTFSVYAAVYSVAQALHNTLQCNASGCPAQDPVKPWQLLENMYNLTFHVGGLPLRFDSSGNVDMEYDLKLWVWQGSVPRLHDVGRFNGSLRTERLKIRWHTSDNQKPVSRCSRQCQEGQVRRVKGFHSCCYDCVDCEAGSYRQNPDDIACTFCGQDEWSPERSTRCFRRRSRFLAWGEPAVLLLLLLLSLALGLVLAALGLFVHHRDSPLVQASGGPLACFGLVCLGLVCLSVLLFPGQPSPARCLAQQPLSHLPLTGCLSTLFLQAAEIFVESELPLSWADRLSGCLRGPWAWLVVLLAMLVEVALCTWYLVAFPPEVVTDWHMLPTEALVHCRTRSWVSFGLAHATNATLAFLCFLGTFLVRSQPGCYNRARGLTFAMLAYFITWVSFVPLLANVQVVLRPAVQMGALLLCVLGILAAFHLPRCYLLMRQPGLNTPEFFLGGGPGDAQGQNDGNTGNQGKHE
# Procedure, shortened: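 Sucrose, sucralose or fructose EC50 measured on human T1R2/T1R3, alone and with 3, 10 or 50 μM test compound. Enhancement is the EC50 ratio without/with compound, binned A >20, B 10-20, C >1 to <10.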
# [1] = Sensory experiments: paired comparison of sweetener alone vs sweetener plus test compound; type: in vivo, human; settings: panelists
# Protocol: (§1) Test samples containing either a sweetener (sucrose or high-fructose corn syrup) alone or in combination with a test compound were presented in pairs to a group of panelists who were asked to determine which of the samples was sweeter. Subjects refrained from eating or drinking (except water) for at least 1 hour prior to the test. Subjects rinsed with water several times to clean the mouth. The samples within a paired comparison test were presented in a randomized, counterbalanced order. Panelists had up to a 1 minute delay between taste tests to clear the mouth of any tastes. Binomial probability tables were used to determine the probability of the correct number of responses occurring for each test at alpha-0.05.
# Stock solutions of test compounds were prepared at 1000× final concentration with ethanol to ensure dispersion in solution. Test compound samples including sucrose were prepared by diluting the stock solutions in a low sodium buffer (0.952 g of KCl, 5.444 g of Na2HPO4, and 0.952 g of KH2PO4 in deionized ultrafiltered water) at pH 7.1 and containing sucrose. Test compound samples including high fructose corn syrup were prepared by diluting the stock solutions in the low sodium buffer at pH 2.8 (using citric acid to adjust the pH) and containing high fructose corn syrup. Control samples were balanced to 0.1% ethanol final. […]
# [2] = Sensory evaluation of inherent sweetness of test compound; type: in vivo, human; settings: test compound alone at 10 ppm
# Protocol: as §1
# Stock solutions of test compounds were prepared at 1000× final concentration with ethanol to ensure dispersion in solution. Test compound samples including sucrose were prepared by diluting the stock solutions in a low sodium buffer (0.952 g of KCl, 5.444 g of Na2HPO4, and 0.952 g of KH2PO4 in deionized ultrafiltered water) at pH 7.1 and containing sucrose. Test compound samples including high fructose corn syrup were prepared by diluting the stock solutions in the low sodium buffer at pH 2.8 (using citric acid to adjust the pH) and containing high fructose corn syrup. Control samples were balanced to 0.1% ethanol final.
# Compound 200 was also tested for inherent sweetness. […]
Compound,Sucralose Enhancement EC50 Ratio (T1R2/T1R3 taste receptor; 10 μM test compound),Sucrose Enhancement EC50 Ratio (T1R2/T1R3 taste receptor; 3 μM test compound),Sucrose Enhancement EC50 Ratio (T1R2/T1R3 taste receptor; 10 μM test compound),Sucrose Enhancement EC50 Ratio (T1R2/T1R3 taste receptor; 50 μM test compound),"sweetness intensity of the combination of test compound and 6% HFCS, compared with HFCS-alone ([1]; test compound at 10 ppm or less with 6% HFCS, low sodium buffer pH 2.8)","Equivalent Sucrose Conc. ([1]; test compound at 10 ppm or less with 6% sucrose, low sodium buffer pH 7.1)","inherent sweetness intensity, compared with sucrose solution [2]",Fructose Enhancement EC50 Ratio (T1R2/T1R3 taste receptor; 10 μM test compound),Fructose Enhancement EC50 Ratio (T1R2/T1R3 taste receptor; 50 μM test compound),Sucralose Enhancement EC50 Ratio (T1R2/T1R3 taste receptor; 50 μM test compound)
"CC(C)(COc1cccc2c1C(N)=NS(=O)(=O)N2)Nc1ccnc(-n2ccnc2)n1 [Compound 200, 4-amino-5-(2-((2-(1H-imidazol-1-yl)pyrimidin-4-yl)amino)-2-methylpropoxy)1H-benzo[c][1,2,6]thiadiazine 2,2-dioxide]",A (An “A” value indicates an enhancement ratio of greater than 20),C (A “C” value indicates an enhancement ratio greater than 1 and less than 10),C (A “C” value indicates an enhancement ratio greater than 1 and less than 10),C (A “C” value indicates an enhancement ratio greater than 1 and less than 10),greater than 6 % HFCS,A (An “A” value indicates an equivalent sucrose concentration of 10% or greater),< 1.5 % sucrose,,,
NC1=NS(=O)(=O)Nc2cccc(OC[C@H]3CCCN(c4cc(C(=O)NC5CCCCC5)ccn4)C3)c21 [Compound 609],B (A “B” value indicates an enhancement ratio from 10 to 20),C (A “C” value indicates an enhancement ratio greater than 1 and less than 10),C (A “C” value indicates an enhancement ratio greater than 1 and less than 10),C (A “C” value indicates an enhancement ratio greater than 1 and less than 10),,,,C (A “C” value indicates an enhancement ratio greater than 1 and less than 10),C (A “C” value indicates an enhancement ratio greater than 1 and less than 10),B (A “B” value indicates an enhancement ratio from 10 to 20)
CCCNc1nccc(NC(C)(C)COc2cccc3c2C(N)=NS(=O)(=O)N3)n1 [Compound 208],A (An “A” value indicates an enhancement ratio of greater than 20),C (A “C” value indicates an enhancement ratio greater than 1 and less than 10),C (A “C” value indicates an enhancement ratio greater than 1 and less than 10),C (A “C” value indicates an enhancement ratio greater than 1 and less than 10),,,,C (A “C” value indicates an enhancement ratio greater than 1 and less than 10),C (A “C” value indicates an enhancement ratio greater than 1 and less than 10),A (An “A” value indicates an enhancement ratio of greater than 20)
NC1=NS(=O)(=O)Nc2cccc(OC[C@H]3CCCN(c4cccc(C(=O)NC5CCCC5)n4)C3)c21 [Compound 408],A (An “A” value indicates an enhancement ratio of greater than 20),C (A “C” value indicates an enhancement ratio greater than 1 and less than 10),B (A “B” value indicates an enhancement ratio from 10 to 20),B (A “B” value indicates an enhancement ratio from 10 to 20),,,,,C (A “C” value indicates an enhancement ratio greater than 1 and less than 10),A (An “A” value indicates an enhancement ratio of greater than 20)
CNC(=O)c1ccnc(N2CCC[C@H](COc3cccc4c3C(N)=NS(=O)(=O)N4)C2)c1 [Compound 600],A (An “A” value indicates an enhancement ratio of greater than 20),C (A “C” value indicates an enhancement ratio greater than 1 and less than 10),,B (A “B” value indicates an enhancement ratio from 10 to 20),,,,,,A (An “A” value indicates an enhancement ratio of greater than 20)
CC(C)(COc1cccc2c1C(N)=NS(=O)(=O)N2)Nc1ncccn1 [Compound 102],A (An “A” value indicates an enhancement ratio of greater than 20),,C (A “C” value indicates an enhancement ratio greater than 1 and less than 10),B (A “B” value indicates an enhancement ratio from 10 to 20),,,,C (A “C” value indicates an enhancement ratio greater than 1 and less than 10),,A (An “A” value indicates an enhancement ratio of greater than 20)
NC1=NS(=O)(=O)Nc2cccc(OC[C@H]3CCCN(c4cc(C(=O)NCCO)ccn4)C3)c21 [Compound 603],A (An “A” value indicates an enhancement ratio of greater than 20),C (A “C” value indicates an enhancement ratio greater than 1 and less than 10),B (A “B” value indicates an enhancement ratio from 10 to 20),C (A “C” value indicates an enhancement ratio greater than 1 and less than 10),,,,C (A “C” value indicates an enhancement ratio greater than 1 and less than 10),C (A “C” value indicates an enhancement ratio greater than 1 and less than 10),
CC(C)NC(=O)c1cccc(N2CCC[C@H](COc3cccc4c3C(N)=NS(=O)(=O)N4)C2)n1 [Compound 407],,,B (A “B” value indicates an enhancement ratio from 10 to 20),C (A “C” value indicates an enhancement ratio greater than 1 and less than 10),,,,C (A “C” value indicates an enhancement ratio greater than 1 and less than 10),C (A “C” value indicates an enhancement ratio greater than 1 and less than 10),
CC(C)(COc1cccc2c1C(N)=NS(=O)(=O)N2)Nc1ccnc(-n2cccn2)n1 [Compound 202],,,,C (A “C” value indicates an enhancement ratio greater than 1 and less than 10),,,,,,
